Earlier results on 1 molecule are cited in patent US20190231704A1 (Yale University, priority 2016, published 2019).

The data set deals with T1, ALK4 (Homo sapiens, UniProt P36896).
T1 sequence (P36896 24-505): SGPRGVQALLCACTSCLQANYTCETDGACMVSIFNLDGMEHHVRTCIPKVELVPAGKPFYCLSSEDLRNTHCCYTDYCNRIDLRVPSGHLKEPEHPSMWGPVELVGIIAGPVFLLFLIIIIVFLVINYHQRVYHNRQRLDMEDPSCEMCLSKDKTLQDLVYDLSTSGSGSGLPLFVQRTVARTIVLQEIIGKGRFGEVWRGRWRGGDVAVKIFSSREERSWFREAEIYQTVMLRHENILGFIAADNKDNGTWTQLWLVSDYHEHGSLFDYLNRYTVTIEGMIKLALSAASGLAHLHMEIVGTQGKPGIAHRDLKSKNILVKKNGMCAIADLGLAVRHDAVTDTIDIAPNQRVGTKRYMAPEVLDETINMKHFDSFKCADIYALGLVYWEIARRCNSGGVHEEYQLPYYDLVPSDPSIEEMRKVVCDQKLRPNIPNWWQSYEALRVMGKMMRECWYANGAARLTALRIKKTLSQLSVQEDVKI

Each structure is given as a SMILES string.

Turning to `Cc1cccc(-c2[nH]c(C(C)(C)C)nc2-c2ccc3c(c2)OCO3)n1` [SB-505124], the IC50 (as a rule, the concentration that gives 50% inhibition) was 129 nM.
